Assay type in all cases: in vivo
Assay [1] has as its system Amaranthus retroflexus (AMARE). Description: Example B pre-emergence herbicidal activity, glasshouse pot test. The following applies: 312 h, rate 250 g/ha, evaluated after 13 days, read-out: Pre-emergence activity AMARE (100=total damage to plant; 0=no damage to plant). As to the method: (§1) Seeds of a variety of test species were sown in standard soil in pots. After cultivation for one day (pre-emergence) or after 8 days cultivation (post-emergence) under controlled conditions in a glasshouse (at 24/16° C., day/night; 14 hours light; 65% humidity), the plants were sprayed with an aqueous spray solution derived from the formulation of the technical active ingredient in acetone/water (50:50) solution containing 0.5% Tween 20 (polyoxyethelyene sorbitan monolaurate, CAS RN 9005-64-5). The test plants were then grown in a glasshouse under controlled conditions in a glasshouse (at 24/16° C., day/night; 14 hours light; 65% humidity) and watered twice daily. After 13 days for pre and post-emergence, the test was evaluated (100=total damage to plant; 0=no damage to plant).
(§2) Alopecurus myosuroides (ALOMY), Avena fatua (AVEFA), Setaria faberi (SETFA), Echinochloa crus-galli (ECHCG), Solanum nigrum (SOLNI) and Amaranthus retroflexus (AMARE)

The subject of assay [2] is Setaria faberi (SETFA). The description is as above. The following applies: 312 h, rate 250 g/ha, evaluated after 13 days, read-out: Pre-emergence activity SETFA (100=total damage to plant; 0=no damage to plant). As to the method:
as §1, §2

Assay [3] concerns Avena fatua (AVEFA). The description is as above. The following applies: 312 h, rate 250 g/ha, evaluated after 13 days, read-out: Pre-emergence activity AVEFA (100=total damage to plant; 0=no damage to plant). As for the experimental part: as §1, §2
Assay [4] has as its system Alopecurus myosuroides (ALOMY). The description is as above. The following applies: 312 h, rate 250 g/ha, evaluated after 13 days, read-out: Pre-emergence activity ALOMY (100=total damage to plant; 0=no damage to plant). As to the method: as §1, §2
In assay [5] the test system is Echinochloa crus-galli (ECHCG). Described as above. Particulars: 312 h, rate 250 g/ha, evaluated after 13 days, read-out: Pre-emergence activity ECHCG (100=total damage to plant; 0=no damage to plant). As to the method:
as §1, §2

The test system of assay [6] is Amaranthus retroflexus (AMARE). Description: Example B post-emergence herbicidal activity, glasshouse pot test. The following applies: 312 h, rate 250 g/ha, evaluated after 13 days, read-out: Post-emergence activity AMARE (100=total damage to plant; 0=no damage to plant). As for the experimental part: as §1, §2
The subject of assay [7] is Setaria faberi (SETFA). The assay is described as above. Particulars: 312 h, rate 250 g/ha, evaluated after 13 days, read-out: Post-emergence activity SETFA (100=total damage to plant; 0=no damage to plant). As for the experimental part:
as §1, §2

In assay [8] the test system is Avena fatua (AVEFA). Described as above. The following applies: 312 h, rate 250 g/ha, evaluated after 13 days, read-out: Post-emergence activity AVEFA (100=total damage to plant; 0=no damage to plant). As to the method: as §1, §2
In assay [9] the test system is Alopecurus myosuroides (ALOMY). The assay is described as above. Particulars: 312 h, rate 250 g/ha, evaluated after 13 days, read-out: Post-emergence activity ALOMY (100=total damage to plant; 0=no damage to plant). As to the method:
as §1, §2

For assay [10], the system named is Echinochloa crus-galli (ECHCG). Described as above. Particulars: 312 h, rate 250 g/ha, evaluated after 13 days, read-out: Post-emergence activity ECHCG (100=total damage to plant; 0=no damage to plant). As for the experimental part: as §1, §2

The values that follow come from US8680012B2, “4-phenyl-pyrane-3,5-diones,4-phenyl-thiopyrane-3,6-diones and cyclohexanetriones as novel herbicides” (Syngenta Crop Protection LLC, priority 2006, dated 2014).

Each structure is given as a SMILES string.

For `CCc1ccc(-c2ccc(Cl)cc2Cl)cc1C1=C(O)C(C)(C)SC(C)(C)C1=O` (single isomer, unassigned) [Compound C-4], the pest or weed control at 250 g/ha turned out to be 0% in assay [1]; 0% in the assay on Setaria faberi (SETFA) [2]; 0% with Avena fatua (AVEFA) [3]; 0% in [4]; 0% in assay [5]; 20% in assay [6]. Further, the pest or weed control at 250 g/ha turned out to be 70% in the assay on Setaria faberi (SETFA) [7], 30% in the assay with Avena fatua (AVEFA) [8], 60% in [9] and 70% in [10].
As to `CCc1ccc(-c2ccc(Cl)c(Cl)c2)cc1C1=C(O)[C@]2(C)O[C@@H](CC2COC)C1=O` (stereo partly drawn) [Compound A-130], the pest or weed control at 250 g/ha in [1] turned out to be 0%; in the assay with Setaria faberi (SETFA) [2], 90%; with Avena fatua (AVEFA) [3] it was 20%; in assay [4] it was 20%; in assay [5], 40%; in assay [6], 0%. The pest or weed control at 250 g/ha in the assay on Setaria faberi (SETFA) [7] worked out at 100%; with Avena fatua (AVEFA) [8] it was 40%; in assay [9] it was 40%; in assay [10] it was 100%.
On to `CCc1ccc(-c2ccc(OC(F)F)cc2)cc1C1=C(O)C(C)(C)OC(C)(C)C1=O` [Compound A-151], for which the pest or weed control at 250 g/ha in assay [1] was 0%; in the assay with Setaria faberi (SETFA) [2], 100%; with Avena fatua (AVEFA) [3], 100%; in assay [4], 100%; in assay [5] it was 100%; in assay [6] it was 0%. Besides, the pest or weed control at 250 g/ha (with Setaria faberi (SETFA) [7]; with Avena fatua (AVEFA) [8]; in assay [9]; in assay [10]) was 100% in each case.
Take `CCc1ccc(-c2ccc(Cl)cc2)cc1C1=C(O)[C@@]2(CC)C=C[C@H](O2)C1=O` [Compound A-63]: the pest or weed control at 250 g/ha in [1] was determined as 0%; with Setaria faberi (SETFA) [2], 30%; in the assay on Avena fatua (AVEFA) [3] it was 0%; in assay [4] it was 0%; in assay [5], 0%; in [6] it was 0%. Also, the pest or weed control at 250 g/ha with Setaria faberi (SETFA) [7] came out at 100%; in the assay on Avena fatua (AVEFA) [8] it was 60%; in [9], 90%; in assay [10], 100%.
Turning to `CCc1ccc(-c2ccc(Cl)cc2)cc1C1=C(O)[C@@]2(CC)CC[C@H](O2)C1=O` [Compound A-79], the pest or weed control at 250 g/ha in [1] came out at 0%; with Setaria faberi (SETFA) [2] it was 100%; in the assay with Avena fatua (AVEFA) [3] it was 40%; in assay [4], 40%; in [5] it was 80%; in assay [6] it was 0%. In addition, the pest or weed control at 250 g/ha in the assay with Setaria faberi (SETFA) [7] worked out at 100%; with Avena fatua (AVEFA) [8] it was 50%; in assay [9], 80%; in assay [10], 100%.
Consider `COc1ccc(-c2ccc(Cl)cc2)cc1C1=C(O)C(C)(C)OC(C)(C)C1=O` [Compound A-90], for which the pest or weed control at 250 g/ha (in assay [1]; in the assay with Setaria faberi (SETFA) [2]; with Avena fatua (AVEFA) [3]; in assay [4]; in [5]; in assay [6]) was 0% in each case. Moreover, the pest or weed control at 250 g/ha worked out at 90% in the assay on Setaria faberi (SETFA) [7], 20% in the assay with Avena fatua (AVEFA) [8], 40% in assay [9] and 90% in assay [10].
Regarding `CCc1ccc(-c2ccc(Cl)cc2Cl)cc1C1=C(O)C(C)(C)[S+]([O-])C(C)(C)C1=O` (single isomer, unassigned) [Compound C-10], the pest or weed control at 250 g/ha in [1] turned out to be 0%; in the assay on Setaria faberi (SETFA) [2], 0%; in the assay with Avena fatua (AVEFA) [3], 20%; in [4] it was 20%; in assay [5], 40%; in assay [6], 0%. In addition, the pest or weed control at 250 g/ha with Setaria faberi (SETFA) [7] came to 20%; in the assay with Avena fatua (AVEFA) [8], 50%; in [9], 20%; in assay [10], 70%.
`Cc1ccc(-c2ccc(Cl)cc2F)cc1C1=C(O)C(C)(C)OC(C)(C)C1=O` [Compound A-59]: the pest or weed control at 250 g/ha in assay [1] is 0%; in the assay on Setaria faberi (SETFA) [2], 40%; with Avena fatua (AVEFA) [3], 40%; in assay [4] it was 30%; in assay [5], 90%; in assay [6], 0%. Further, the pest or weed control at 250 g/ha turned out to be 90% with Setaria faberi (SETFA) [7], 50% in the assay on Avena fatua (AVEFA) [8], 30% in [9] and 100% in assay [10].
`CCc1ccc(-n2cnc(Cl)c2Cl)cc1C1=C(OC(=O)OC)C(C)(C)OC(C)(C)C1=O` [Compound D-32]: the pest or weed control at 250 g/ha was determined as 0% in assay [1]; 80% in the assay on Setaria faberi (SETFA) [2]; 80% in the assay with Avena fatua (AVEFA) [3]; 20% in assay [4]; 60% in assay [5]; 0% in [6]. The pest or weed control at 250 g/ha in the assay with Setaria faberi (SETFA) [7] was determined as 80%; in the assay with Avena fatua (AVEFA) [8], 70%; in assay [9], 50%; in assay [10], 90%.
Consider `CCc1ccc(-c2ccc(Cl)c(F)c2Cl)cc1C1=C(O)C(C)(C)OC(C)(C)C1=O` [Compound A-138], for which the pest or weed control at 250 g/ha worked out at 20% in assay [1]; 100% in the assay on Setaria faberi (SETFA) [2]; 90% in the assay on Avena fatua (AVEFA) [3]; 90% in assay [4]; 100% in assay [5]; 60% in assay [6]. In addition, the pest or weed control at 250 g/ha (in the assay with Setaria faberi (SETFA) [7]; in the assay with Avena fatua (AVEFA) [8]; in assay [9]; in assay [10]) was 100% in each case.
As to `CCc1ccc(-c2ccc(Cl)cc2)cc1C1=C(O)C(C)(C)OC(C)(C)C1=O` [Compound A-4], the pest or weed control at 250 g/ha in assay [1] is 20%; in the assay with Setaria faberi (SETFA) [2] it was 100%; in the assay with Avena fatua (AVEFA) [3], 70%; in assay [4], 70%; in assay [5], 100%; in [6] it was 20%. The pest or weed control at 250 g/ha with Setaria faberi (SETFA) [7] came to 100%; with Avena fatua (AVEFA) [8] it was 80%; in [9] it was 90%; in assay [10], 100%.
With `Cc1cc(C)c(-c2ccc(Cl)cc2F)c(C)c1C1=C(O)C(C)(C)OC(C)(C)C1=O` [Compound A-102], the pest or weed control at 250 g/ha was 0% in assay [1]; 90% with Setaria faberi (SETFA) [2]; 0% in the assay on Avena fatua (AVEFA) [3]; 30% in [4]; 90% in assay [5]; 0% in assay [6]. Besides, the pest or weed control at 250 g/ha in the assay with Setaria faberi (SETFA) [7] came to 30%; with Avena fatua (AVEFA) [8], 0%; in [9], 20%; in assay [10], 70%.
